Assays:
[1] = system: L. pneumophila serogroup 1; conditions: ion used alone; cited from earlier work
poliovirus = conditions: in 12 hours; cited from earlier work
MS2 = conditions: in 12 hours; cited from earlier work
Klebsiella terrigena = test: Disinfection of seeded test waters, log reduction of Klebsiella; conditions: seeded municipal water
[2] = after 60 days; cited from earlier work
MS2 bacteriophage = test: Disinfection of seeded test waters, log reduction of MS2 virus; conditions: contact up to 24 hours

| Molecule | contact time to achieve complete (6 log) inactivation of Legionella [1] | log inactivation of poliovirus (poliovirus) | log inactivation of MS2 (MS2) | log reduction of Klebsiella (Klebsiella terrigena; 60 minute contact time) | log reduction of Klebsiella (Klebsiella terrigena; 240 minutes contact time) | share of initial input detectable in the test chambers [2] | reduction of MS2 virus (MS2 bacteriophage; seeded municipal water) | reduction of MS2 virus (MS2 bacteriophage; seeded untreated natural waters) |
| --- | --- | --- | --- | --- | --- | --- | --- | --- |
| [Cu+2] [copper ions] | 2.5 hours | 1.3 log | 4.0 log | less than 3 log | less than 5 log | 75% | – | – |
| silver ions | 24 hours | – | – | 5 log | – | 44% | No effective reduction | No effective reduction |

Reference: patent publication US7485259B2, “Organic compound and metal ion synergistic disinfection and purification system and method of manufacture” (priority 2003, dated 2009)
